Read-outs that look alike come from different tables or passages of the source.

Data set [1] can be described thus: pKa determination (pKa PRO Analyzer). The data set is classed as physicochemical. Here is the method:
Sample Preparation: A stock solution of test compound in dimethyl sulfoxide (DMSO) having a final concentration of 10 mM was prepared and used in all experiments. The DMSO stocks were thawed, spun, and sonicated in a 40° C. water bath to facilitate dissolution.
The compounds were then transferred into 24 consecutive wells of a 96 well PCR plate for analysis with the aqueous method. […] The compounds were transferred into 24 consecutive wells of a 96 well plate for analysis using the co-solvent method.
Analysis: All data was obtained using a pKa PRO Analyzer (AATI, Ames, Iowa). For the aqueous method, an electrophoretic separation is performed in parallel across 24 different pH values, providing a direct measure of overall compound charge vs. pH. The compounds are detected by UV at 228 nm. The average pH spacing between buffer points is 0.4 pH units covering a typical pH range of 1.7-11.2.
The average pH spacing between buffer points is 0.4 pH units covering a pH range of 1.7-11.2. Four consecutive CE runs are performed for each compound starting with 60% co-solvent buffers and decreasing to 30% co-solvent buffers.
Norfloxacin is used as a daily performance-indicating standard.
Calculation of Results: The total number of pKa values is predicted by relating mobility and compound molecular weight using pKa Estimator® software (AATI, Ames, Iowa).

Data set [2] deals with cloned hERG potassium channel encoded by the KCNH2 gene (Homo sapiens (Human), UniProt Q12809). Nature of the data set: Automated hERG assay (FASTPatch, QPatch). The data set is classed as cell-based. The settings on record: HEK293T cells, patch clamp, 0.3-30 uM.
Chain of cloned hERG potassium channel encoded by the KCNH2 gene (Q12809 whole entry): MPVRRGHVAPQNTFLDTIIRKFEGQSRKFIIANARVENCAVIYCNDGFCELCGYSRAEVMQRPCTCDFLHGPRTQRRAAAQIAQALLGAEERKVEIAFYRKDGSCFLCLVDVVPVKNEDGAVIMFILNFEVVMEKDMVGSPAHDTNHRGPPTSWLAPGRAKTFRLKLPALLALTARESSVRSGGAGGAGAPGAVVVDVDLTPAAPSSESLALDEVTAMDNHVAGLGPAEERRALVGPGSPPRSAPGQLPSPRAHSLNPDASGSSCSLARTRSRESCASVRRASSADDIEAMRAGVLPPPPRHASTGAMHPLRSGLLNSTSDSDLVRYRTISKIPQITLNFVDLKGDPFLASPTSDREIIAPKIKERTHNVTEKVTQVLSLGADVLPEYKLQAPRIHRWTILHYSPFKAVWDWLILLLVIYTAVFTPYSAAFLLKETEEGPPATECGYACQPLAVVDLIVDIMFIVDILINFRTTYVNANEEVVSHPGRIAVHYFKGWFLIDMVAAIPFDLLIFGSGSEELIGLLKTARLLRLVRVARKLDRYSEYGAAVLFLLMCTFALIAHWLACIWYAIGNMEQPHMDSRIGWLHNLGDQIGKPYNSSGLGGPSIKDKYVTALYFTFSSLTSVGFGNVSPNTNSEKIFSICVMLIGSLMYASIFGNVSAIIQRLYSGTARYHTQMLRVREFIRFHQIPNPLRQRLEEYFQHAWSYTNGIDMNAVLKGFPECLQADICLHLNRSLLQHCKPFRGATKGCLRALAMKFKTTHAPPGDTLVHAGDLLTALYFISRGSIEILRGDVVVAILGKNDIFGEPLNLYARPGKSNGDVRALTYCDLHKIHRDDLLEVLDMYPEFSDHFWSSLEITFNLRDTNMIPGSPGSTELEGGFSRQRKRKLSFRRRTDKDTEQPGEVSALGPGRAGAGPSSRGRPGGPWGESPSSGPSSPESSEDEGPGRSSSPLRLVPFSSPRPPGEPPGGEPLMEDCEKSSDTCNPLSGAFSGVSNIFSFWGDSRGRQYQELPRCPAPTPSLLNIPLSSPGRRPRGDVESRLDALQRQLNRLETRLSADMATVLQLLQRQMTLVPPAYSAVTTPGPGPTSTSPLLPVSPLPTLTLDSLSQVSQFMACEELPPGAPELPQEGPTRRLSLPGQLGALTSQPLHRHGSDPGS
Experimental: The FASTPatch® Assay (Charles River) was used to examine the in vitro effects of various compounds on the cloned hERG potassium channel encoded by the KCNH2 gene and stably expressed in HEK293T cells. Vehicle, test and control article formulations were prepared by diluting DMSO stock solutions in HB-PS (HEPES-buffered physiological saline solution), and were delivered to cells via the QPatch robot pipetting system to a final concentration of 0.3% DMSO. […] The positive control, 50 nM Cisparide, was applied in the same manner. Cell membrane currents were recorded at room temperature with up to 48 parallel patch clamp amplifiers in the QPatch HT® or QPatch HTX® system, and only cells with validated whole-cell recordings (seal resistance ≥200 MO and leak current ≤25% channel current) were used. Onset and block of hERG current was measured using a stimulus voltage pattern consisting of a 500 ms prepulse to −40 mV, a 2-second activating pulse to +40 mV, followed by a 2-second test pulse to −40 mV. The pulse pattern was repeated continuously at 10-second intervals from a holding potential of −80 mV. TurboSol analysis for test compound solubility was performed for each concentration tested using a Nephelostar reader measuring light scatter from a 635 nm laser source. […]
Data set [3] relates to human cryopreserved hepatocytes. Nature of the data set: Metabolic stability in cryopreserved hepatocytes. The settings on record: 1 μM test compound. The data set is classed as in vitro ADME. Here is the method:
Metabolic Stability in Cryopreserved Hepatocytes: Complete HT medium was prepared by the addition of 1 mL Torpedo Antibiotic Mix to 45 mL of InVitroGRO™ HT medium. Supplemented KHB medium consisted of KrebsHenseleit buffer with amikacin (84 μg/mL), calcium chloride (1 mM), gentamicin (84 μg/mL), HEPES (20 mM), heptanoic acid (4.2 μM) and sodium bicarbonate (28.5 mM) and the pH was adjusted to 7.4 at 37° C. using 1 M NaOH or 1 M HCl. The human cryopreserved hepatocytes were pooled from ten adult donors (Celsis, Lot: HBZ).
Vials containing cryopreserved hepatocytes were removed from liquid nitrogen and immediately immersed in a 37° C. water bath. The vials were shaken gently until the contents had thawed and were then immediately emptied into 48 mL of pre warmed Complete HT Medium in a 50 mL conical tube. Cells remaining in the vial were resuspended with 1.0 mL of pre warmed Complete HT Medium and added to the conical tube. The tube was capped and then gently inverted several times to resuspend the hepatocytes. The cell suspension was centrifuged at 50×g at room temperature for 5 minutes and the supernatant discarded. The cell pellet was loosened by gently swirling the centrifuge tube and Supplemented KHB medium was added to obtain a target density of 2×10^6 cells/mL. The total cell count and the proportion of viable cells were determined by Trypan Blue dye exclusion using a hemocytometer.
For incubations, aliquots of hepatocyte suspension (250 μL containing 500,000 cells) were added to 250 μL of 2 μM test compound or metabolic stability controls in supplemented KHB in duplicate wells in a 24-well plate. Final concentration in the incubations were 1×10^6 cells/mL and 1 μM test compound. 7-Hydroxycoumarin and testosterone, compounds known to be efficiently metabolized by hepatocytes, were used as positive controls in parallel incubations ([…] final concentration of each compound). The incubation was carried out with gentle shaking at 37° C. under a humid atmosphere of 95% air/5% CO2 (v/v). Aliquots (50 μL) were removed after 0, 1, 3, and 6 hours and added to 100 μL IS/Q quenching solution. After termination, 150 μL of water was added, the plates were centrifuged at 3000×g for 10 min, and aliquots of the supernatant were analyzed on a Micromass Quattro Premier mass spectrometer coupled to an Agilent 1200 Series HPLC system with a Leap Technologies HTC PAL autosampler as described below.
Liquid Chromatography-Mass Spectrometry: Quantification of test compound and metabolic stability controls was performed by analyte/internal standard peak area ratios (PAR) measured on a Micromass Quattro Premier XL tandem triple quadrupole mass spectrometer coupled to an Agilent 1200 Series HPLC system with a Leap Technologies HTC PAL autosampler. The column used was a Phenomenex® MercuryMS™, Synergi Max-RP (100 Å pore size, 2.5 μm particle size, 20×2.0 mm). Mobile Phase A consisted of 0.2% (v/v) formic acid in 99% water/1% acetonitrile (v/v). Mobile Phase B consisted of 0.2% (v/v) formic acid in 5% water/95% acetonitrile (v/v). Elution was achieved by the following series of linear gradients: initial conditions of 0% B, holding for 30 s, then increasing to 100% B over 90 s, and then returning to the initial conditions over 1 s. The system was allowed to re-equilibrate for a minimum of 60 s between injections. The sample injection volume was 10 μL.

In data set [4] the target is IRAK4 enzyme (Homo sapiens (Human), UniProt Q9NWZ3). Nature of the data set: IRAK4 biochemical assay (HTRF/TR-FRET). The settings on record: 500 μM ATP.
Chain of IRAK4 enzyme (Q9NWZ3 whole entry): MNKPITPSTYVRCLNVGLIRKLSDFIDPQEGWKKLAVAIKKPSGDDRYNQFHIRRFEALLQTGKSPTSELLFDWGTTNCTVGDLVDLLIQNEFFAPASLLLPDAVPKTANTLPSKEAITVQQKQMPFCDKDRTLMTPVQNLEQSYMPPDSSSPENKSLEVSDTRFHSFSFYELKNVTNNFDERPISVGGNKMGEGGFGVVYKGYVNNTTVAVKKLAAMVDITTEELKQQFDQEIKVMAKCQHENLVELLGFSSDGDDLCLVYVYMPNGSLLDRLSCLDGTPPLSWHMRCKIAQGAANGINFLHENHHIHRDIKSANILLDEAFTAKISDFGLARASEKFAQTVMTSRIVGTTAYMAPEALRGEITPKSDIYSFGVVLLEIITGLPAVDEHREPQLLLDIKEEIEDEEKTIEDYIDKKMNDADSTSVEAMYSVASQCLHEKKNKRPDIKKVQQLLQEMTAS
Experimental: IRAK4 enzyme (Carna Biosciences, Chuo-ku, Kobe, Japan) activity was measured by detecting phosphorylated peptide substrate formation using an antibody against the phosphorylated peptide substrate. This is a time-resolved fluorescence resonance energy transfer (TR-FRET) immunoassay, based on the STK1 KnEASE Assay (Cisbio, Bedford, Mass.). […] Compounds diluted in DMSO were spotted into 384 well plates using a Labcyte® Echo 550 Liquid Handling System prior to addition of IRAK4 enzyme and peptide substrate. Reaction solutions were delivered using a Multi-Flo (Bio-Tek Instruments). The enzyme and peptide solution was incubated with compound for 15 minutes at room temp before the reaction was initiated by the addition of ATP.
In data set [5] the test system is TNFα. The experiment in a line: IRAK4 monocyte TNFα cell based assay (LPS stimulated). Also noted: species or system human.
Experimental: IRAK4 Monocyte TNFα Cell Based Assay Procedure:
The cell suspension was then plated at a density of 5,000 cells/well onto black 384 well Greiner clear bottom plates. Plates were pre-spotted with test compounds and serially diluted in DMSO where 40 nL/well were delivered using the Echo 550 acoustic liquid dispenser (Labcyte®) for a final DMSO concentration of 0.1%. Plated cells were treated with compound for 1 hour at 37° C. Cells were then stimulated with 50 pg/ml of LPS (Sigma) excluding outside columns of plate used for unstimulated cell control wells. Cells were incubated for an additional 4 hours at 37° C. Cells were then spun out of the media and 5 μl of sample were taken and analyzed for total TNFα content using the TR-FRET Human TNFα detection system (CisBio). This system utilizes two labeled antibodies (cryptate and XL665) that bind to two different epitopes of the TNFα molecule and produce FRET signal proportional to the concentration of TNFα in the sample. Detection antibodies are mixed 50:50 and 5 μL were dispensed into each well. Plates were covered with clear seals and incubated at room temp overnight. […] Percent of control was calculated as follows: % Control=100×(RatioSample−Ratio0% stimulation)/(Ratio100% Stimulation−Ratio0% Stimulation) where unstimulated cells (0% stimulation) were the negative control and stimulated cells (100% stimulation) were used as the positive control.
Setting [6] is: human monocytes, LPS 50 pg/ml, TNFα by TR-FRET, read-out: EC50 TNF.

The compound `CC(C)Nc1cc(-c2ccc3cc(C#N)cnn23)ncc1C(=O)NC[C@@H](F)C(C)(C)O` [A, reference compound] displayed a pKa in data set [1] of 6.1. Further, the half-maximal inhibitory concentration (IC50) in data set [2] was 3.9 µM; in data set [4], less than 1 nM. The “Human Hep. Stability” value in data set [3] came out at 0.20 L/h/kg. Moreover, the EC50 in data set [5] (setting [6]) is 23 nM; in data set [5] (protein adjusted, competitive equilibrium dialysis, human plasma versus CCM with 10% FBS, read-out: Protein Adj. EC50 TNF), 504 nM.
With `CNc1cc(-c2ccc3cc(C#N)cnn23)ncc1C(=O)NC[C@@H](F)C(C)(C)O` [Compound 1, (R)-6-(3-cyanopyrrolo[1,2-b]pyridazin-7-yl)-N-(2-fluoro-3-hydroxy-3-methylbutyl)-4-(methylamino)nicotinamide], in data set [1], the pKa amounted to 6.6. Moreover, in data set [3], the “Human Hep. Stability” value came out at 0.05 L/h/kg.
For `CC(C)(O)[C@H](F)CNC(=O)c1cnc(-c2ccc3cc(C#N)cnn23)cc1NCC#N` [Compound 2, (R)-4-((cyanomethyl)amino)-6-(3-cyanopyrrolo[1,2-b]pyridazin-7-yl)-N-(2-fluoro-3-hydroxy-3-methylbutyl)nicotinamide] the same measures were 5.1 and 0.13 L/h/kg.
For `C[C@H](C#N)Nc1cc(-c2ccc3cc(C#N)cnn23)ncc1C(=O)NC[C@@H](F)C(C)(C)O` [Compound 3, 4-(((R)-1-cyanoethyl)amino)-6-(3-cyanopyrrolo[1,2-b]pyridazin-7-yl)-N-((R)-2-fluoro-3-hydroxy-3-methylbutyl)nicotinamide] the same measures were 4.9 and 0.08 L/h/kg.
In turn, `CC[C@H](C#N)Nc1cc(-c2ccc3cc(C#N)cnn23)ncc1C(=O)NC[C@@H](F)C(C)(C)O` [Compound 5, 4-(((R)-1-cyanopropyl)amino)-6-(3-cyanopyrrolo[1,2-b]pyridazin-7-yl)-N-((R)-2-fluoro-3-hydroxy-3-methylbutyl)nicotinamide] gave an IC50 in data set [4] of 1 nM. Also, the EC50 in data set [5] (setting [6]) stood at 60 nM.
As for `CC[C@@H](C#N)Nc1cc(-c2ccc3cc(C#N)cnn23)ncc1C(=O)NC[C@@H](F)C(C)(C)O` [Compound 6, 4-(((S)-1-cyanopropyl)amino)-6-(3-cyanopyrrolo[1,2-b]pyridazin-7-yl)-N-((R)-2-fluoro-3-hydroxy-3-methylbutyl)nicotinamide], the IC50 in data set [4] stood at 5 nM. Moreover, the EC50 in data set [5] (setting [6]) was determined as 267 nM.
Consider `CC(C)(O)[C@H](F)CNC(=O)c1cnc(-c2ccc3cc(C#N)cnn23)cc1NCCC#N` [Compound 7, (R)-4-((2-cyanoethyl)amino)-6-(3-cyanopyrrolo[1,2-b]pyridazin-7-yl)-N-(2-fluoro-3-hydroxy-3-methylbutyl)nicotinamide], for which the EC50 in data set [5] (setting [6]) came to 164 nM.
In data set [1], `CC(C)(O)[C@H](F)CNC(=O)c1cnc(-c2ccc3cc(C#N)cnn23)cc1NCCCC#N` [Compound 8, (R)-4-((3-cyanopropyl)amino)-6-(3-cyanopyrrolo[1,2-b]pyridazin-7-yl)-N-(2-fluoro-3-hydroxy-3-methylbutyl)nicotinamide] showed a pKa of 5.9. Besides, the figures for the IC50 in data set [2] and in data set [4] were 3.5 µM and less than 1 nM, respectively. Moreover, the “Human Hep. Stability” value in data set [3] was 0.14 L/h/kg. In data set [5] (setting [6]), the EC50 stood at 33 nM.
Turning to `CC(C)(C#N)Nc1cc(-c2ccc3cc(C#N)cnn23)ncc1C(=O)NC[C@@H](F)C(C)(C)O` [Compound 9, (R)-4-((2-cyanopropan-2-yl)amino)-6-(3-cyanopyrrolo[1,2-b]pyridazin-7-yl)-N-(2-fluoro-3-hydroxy-3-methylbutyl)nicotinamide], the pKa in data set [1] worked out at 4.8. In data set [3], the “Human Hep. Stability” value is given as 0.26 L/h/kg. The compound also returned an IC50 in data set [4] of less than 1 nM. Further, the EC50 in data set [5] (setting [6]) worked out at 49 nM.
Consider `CC(C)(O)[C@H](F)CNC(=O)c1cnc(-c2ccc3cc(C#N)cnn23)cc1NC1(C#N)CC1` [Compound 10, (R)-4-((1-cyanocyclopropyl)amino)-6-(3-cyanopyrrolo[1,2-b]pyridazin-7-yl)-N-(2-fluoro-3-hydroxy-3-methylbutyl)nicotinamide], for which the “Human Hep. Stability” value in data set [3] worked out at 0.22 L/h/kg. In data set [4], this compound gave an IC50 of less than 1 nM. In addition, the EC50 in data set [5] (setting [6]) worked out at 35 nM.

The record behind these values is patent publication US11535622B2, “Pyrrolo[1,2-b] pyridazine derivatives” (Gilead Sciences, Inc., priority 2018, dated 2022).
